These results are taken from PMC11310081, “Deep-learning-enabled antibiotic discovery through molecular de-extinction” (Nature Biomedical Engineering, 2024).

In brackets after ≈: the same amount, converted by molar mass. Read-outs that look alike come from different tables or passages of the source. Peptide text beside a SMILES is read from it.

One data set deals with HEK293T cells. The protocol:
HEK293T cells were obtained from the American Type Culture Collection (CRL-3216). The cells were cultured in high-glucose Dulbecco’s modified Eagle’s medium supplemented with 1% penicillin and streptomycin (antibiotics) and 10% fetal bovine serum and grown at 37 °C in a humidified atmosphere containing 5% CO2.
One day before the experiment, an aliquot of 100 μl of the cells at 50,000 cells per ml was seeded into each well of the cell-treated 96-well plates used in the experiment (that is, 5,000 cells per well). […] After the incubation period, we performed the 3-(4,5-dimethylthiazol-2-yl)-2,5-diphenyltetrazolium bromide tetrazolium reduction assay (MTT assay)[53]. The MTT reagent was dissolved at 0.5 mg ml^−1 in medium without phenol red and was used to replace cell culture supernatants containing the peptides (100 μl per well), and the samples were incubated for 4 h at 37 °C in a humidified atmosphere containing 5% CO2 yielding the insoluble formazan salt. The resulting salts were then resuspended in hydrochloric acid (0.04 mol l^−1) in anhydrous isopropanol and quantified by spectrophotometric measurements of absorbance at 570 nm. All assays were done as three biological replicates.
Unless otherwise stated, all assays were performed in three independent biological replicates as indicated in each figure legend and Methods sections. The cytotoxic activities values were estimated using non-linear regression based on the range of concentrations screened and were shown as the values that cause lysis of 50% of the cells in the experiment. Two technical replicates were performed in the cytotoxicity assays within each of the three biological replicates.

Data set [1] concerns E. faecium ATCC 700221 (vancomycin-resistant strain). In kind it is cell-based, Enterococcus faecium. Conditions: ATCC 700221, 20 h. From the text:
(§1) The following Gram-negative bacteria were used in our study: A. baumannii ATCC 19606, E. coli ATCC 11775, E. coli AIC221 (E. coli MG1655 phnE_2::FRT), E. coli AIC222 (E. coli MG1655 pmrA53 phnE_2::FRT (colistin resistant)), K. pneumoniae ATCC 13883, P. aeruginosa PAO1 and P. aeruginosa PA14. The following Gram-positive bacteria were also used in our study: S. aureus ATCC 12600, S. aureus ATCC BAA-1556 (methicillin-resistant strain), E. faecalis ATCC 700802 (vancomycin-resistant strain) and E. faecium ATCC 700221 (vancomycin-resistant strain). Bacteria were grown from frozen stocks and plated on Luria–Bertani (LB) or Pseudomonas isolation agar plates (P. aeruginosa strains) and incubated overnight at 37 °C. After the incubation period, a single colony was transferred to 5 ml of LB medium, and cultures were incubated overnight (16 h) at 37 °C. The following day, an inoculum was prepared by diluting the overnight cultures 1:100 in 5 ml of the respective media and incubating them at 37 °C until bacteria reached logarithmic phase (OD600 = 0.3–0.5).
(§2) The in vitro antimicrobial activity of the peptides was assessed by using the broth microdilution assay. […] Aqueous solutions of the peptides were added to the plate at concentrations ranging from 1 to 64 μmol l^−1. […] The optical density of the plates was measured at 600 nm using a spectrophotometer. All assays were done as three biological replicates.

Data set [2] deals with 11 clinically relevant bacterial pathogens. In kind it is cell-based. Conditions: Supplementary Dataset 2; against the 11 pathogens tested.
Source text: as §1, §2

A further data set deals with A. baumannii ATCC 19606. In kind it is cell-based, Acinetobacter baumannii. Conditions: ATCC 19606, 20 h.
Source text: as §1, §2

A further data set concerns E. coli AIC221. The data set is classed as cell-based, Escherichia coli. Conditions: AIC221, 20 h.
Source text: as §1, §2

Another data set concerns E. coli ATCC 11775. In kind it is cell-based, Escherichia coli. Conditions: ATCC 11775, 20 h.
Source text: as §1, §2

The next data set deals with K. pneumoniae ATCC 13883. The data set is classed as cell-based, Klebsiella pneumoniae. Conditions: ATCC 13883, 20 h.
Source text: as §1, §2

The subject of data set [3] is S. aureus ATCC BAA-1556 (methicillin-resistant strain). In kind it is cell-based, Staphylococcus aureus. Conditions: ATCC BAA-1556, 20 h.
Source text: as §1, §2

As usually defined, the CC50 is the concentration giving 50% cytotoxicity. A lower CC50 goes with greater toxicity to the cells. In the case of `CC[C@H](C)[C@H](NC(=O)[C@H](Cc1ccccc1)NC(=O)[C@H](CC(N)=O)NC(=O)[C@@H](NC(=O)[C@@H](NC(=O)[C@H](Cc1c[nH]cn1)NC(=O)[C@@H](N)CC(C)C)[C@@H](C)O)[C@@H](C)CC)C(=O)N[C@H](C(=O)N[C@@H](CCCCN)C(=O)N[C@@H](CO)C(=O)N[C@@H](CC(C)C)C(=O)N[C@@H](CC(C)C)C(=O)N[C@@H](CC(C)C)C(=O)O)[C@@H](C)CC` [Bisonin-1] (H-LHTINFIIKSLLL-OH; N-terminus and C-terminus assumed), in the data set with HEK293T cells (24 h), the CC50 was more than 128 µM and the “TI (therapeutic index)” value is on record as more than 8. Further, the “Minimal inhibitory concentration, E. faecium ATCC700221-VRE” value in data set [1] amounted to 16 µM (≈ 24.4 µg/mL). Besides, the “Active or Inactive” value in data set [2] is “Active”.
As to `CC[C@H](C)[C@H](NC(=O)[C@H](CCCCN)NC(=O)[C@@H](NC(=O)[C@H](Cc1c[nH]c2ccccc12)NC(=O)[C@@H](N)CCCCN)[C@@H](C)O)C(=O)N[C@@H](Cc1ccc(O)cc1)C(=O)N[C@@H](CC(C)C)C(=O)N1CCC[C@H]1C(=O)N[C@@H](CC(C)C)C(=O)N[C@@H](CC(C)C)C(=O)N[C@@H](CC(C)C)C(=O)N1CCC[C@H]1C(=O)N[C@@H](CC(C)C)C(=O)O` [Bisonin-2] (H-KWTKIYLPLLLPL-OH; N-terminus and C-terminus assumed), the “Minimal inhibitory concentration, A. baumannii ATCC19606” value in the data set on A. baumannii ATCC 19606 was 8 µM (≈ 12.8 µg/mL). In the data set on HEK293T cells (24 h), the half-maximal cytotoxic concentration (CC50) was more than 128 µM. Further, in data set [1], the “Minimal inhibitory concentration, E. faecium ATCC700221-VRE” value worked out at 8 µM (≈ 12.8 µg/mL). The “Active or Inactive” value in data set [2] is “Active”.
Regarding `CC[C@H](C)[C@H](NC(=O)[C@H](CC(C)C)NC(=O)[C@H](CCCNC(=N)N)NC(=O)[C@H](Cc1c[nH]c2ccccc12)NC(=O)[C@H](CC(C)C)NC(=O)[C@@H](NC(=O)[C@H](CCCNC(=N)N)NC(=O)[C@H](CCC(N)=O)NC(=O)[C@H](Cc1ccc(O)cc1)NC(=O)[C@H](CC(C)C)NC(=O)[C@@H](N)CCCCN)[C@@H](C)CC)C(=O)N[C@@H](CO)C(=O)N[C@@H](CCC(=O)O)C(=O)N[C@@H](CC(C)C)C(=O)O` [Equusin-3] (H-KLYQRILWRLISEL-OH; N-terminus and C-terminus assumed), the CC50 in the data set on HEK293T cells (24 h) was more than 128 µM. Further, the “Minimal inhibitory concentration, E. faecium ATCC700221-VRE” value in data set [1] worked out at 8 µM (≈ 14.6 µg/mL). The “Active or Inactive” value in data set [2] is given as “Active”. Besides, the “Minimal inhibitory concentration, E. coli AIC221” value in the data set on E. coli AIC221 stood at 4 µM (≈ 7.32 µg/mL). Moreover, in the data set with E. coli ATCC 11775, the “Minimal inhibitory concentration, E. coli ATCC11775” value was 16 µM (≈ 29.3 µg/mL).
As to `CC[C@H](C)[C@H](NC(=O)[C@@H](NC(=O)[C@H](Cc1c[nH]c2ccccc12)NC(=O)[C@H](CCCCN)NC(=O)[C@@H](N)CCCCN)C(C)C)C(=O)N[C@@H](CCCCN)C(=O)N[C@@H](CO)C(=O)N[C@H](C(=O)N[C@H](C(=O)N[C@@H](Cc1ccccc1)C(=O)N[C@@H](Cc1ccccc1)C(=O)N[C@@H](CCCCN)C(=O)O)C(C)C)C(C)C` [Hesperelin-2] (H-KKWVIKSVVFFK-OH; N-terminus and C-terminus assumed), in the data set with A. baumannii ATCC 19606, the “Minimal inhibitory concentration, A. baumannii ATCC19606” value was 16 µM (≈ 24.1 µg/mL). This compound also displayed a CC50 with HEK293T cells (24 h) of more than 128 µM. For the same compound, the “Minimal inhibitory concentration, E. faecium ATCC700221-VRE” value in data set [1] was found to be 8 µM (≈ 12.1 µg/mL). Also, in data set [2], the “Active or Inactive” value is reported as “Active”. Further, the “Minimal inhibitory concentration, K. pneumoniae ATCC133883” value in the data set with K. pneumoniae ATCC 13883 is 32 µM (≈ 48.3 µg/mL). In addition, in data set [3], the “Minimal inhibitory concentration, S. aureus ATCC BAA-1556-MRSA” value came to 16 µM (≈ 24.1 µg/mL). The “Minimal inhibitory concentration, E. coli AIC221” value with E. coli AIC221 stood at 8 µM (≈ 12.1 µg/mL).
For the compound `CC[C@H](C)[C@H](NC(=O)[C@H](CCCCN)NC(=O)[C@H](CC(C)C)NC(=O)[C@@H](NC(=O)[C@@H](N)CCCCN)[C@@H](C)O)C(=O)N[C@H](C(=O)N[C@@H](CCCNC(=N)N)C(=O)N[C@@H](CC(C)C)C(=O)N[C@@H](CC(C)C)C(=O)N[C@@H](Cc1ccccc1)C(=O)O)[C@@H](C)CC` [Mammuthusin-3] (H-KTLKIIRLLF-OH; N-terminus and C-terminus assumed), the “Minimal inhibitory concentration, A. baumannii ATCC19606” value in the data set with A. baumannii ATCC 19606 was 32 µM (≈ 39.8 µg/mL). Besides, the half-maximal cytotoxic concentration (CC50) in the data set with HEK293T cells (24 h) was more than 128 µM. Besides, the “Active or Inactive” value in data set [2] is on record as “Active”. Further, the “Minimal inhibitory concentration, E. coli AIC221” value in the data set with E. coli AIC221 amounted to 16 µM (≈ 19.9 µg/mL).
Regarding `CC[C@H](C)[C@H](NC(=O)[C@@H](NC(=O)[C@H](CCSC)NC(=O)[C@@H](N)Cc1c[nH]c2ccccc12)[C@@H](C)O)C(=O)N[C@@H](Cc1c[nH]cn1)C(=O)N[C@@H](C)C(=O)N[C@@H](CC(C)C)C(=O)N[C@@H](CCCCN)C(=O)N[C@@H](CC(C)C)C(=O)N[C@@H](CO)C(=O)N[C@@H](CC(C)C)C(=O)N[C@@H](CO)C(=O)N[C@@H](Cc1ccccc1)C(=O)N[C@@H](CCCCN)C(=O)N[C@@H](CC(C)C)C(=O)O` [Mammutin-1] (H-WMTIHALKLSLSFKL-OH; N-terminus and C-terminus assumed), in the data set with HEK293T cells (24 h), the CC50 was more than 128 µM and the “TI (therapeutic index)” value was more than 64. Also, the “Minimal inhibitory concentration, E. faecium ATCC700221-VRE” value in data set [1] is 2 µM (≈ 3.58 µg/mL). The “Active or Inactive” value in data set [2] is “Active”.
Consider `CC[C@H](C)[C@H](NC(=O)[C@H](CCCCN)NC(=O)[C@H](CO)NC(=O)[C@H](CC(N)=O)NC(=O)[C@H](Cc1ccccc1)NC(=O)[C@H](Cc1c[nH]cn1)NC(=O)[C@H](Cc1ccccc1)NC(=O)[C@@H](N)Cc1c[nH]c2ccccc12)C(=O)N[C@@H](CC(C)C)C(=O)N[C@@H](CC(C)C)C(=O)N[C@@H](CC(C)C)C(=O)N[C@H](C(=O)NCC(=O)N[C@@H](CC(C)C)C(=O)O)[C@@H](C)O` [Mylodonin-1] (H-WFHFNSKILLLTGL-OH; N-terminus and C-terminus assumed), for which, in the data set on HEK293T cells (24 h), the CC50 is more than 128 µM and the “TI (therapeutic index)” value was more than 16. In data set [1], the “Minimal inhibitory concentration, E. faecium ATCC700221-VRE” value is 8 µM (≈ 13.5 µg/mL). Further, the “Active or Inactive” value in data set [2] is recorded as “Active”.
On to `CC[C@H](C)[C@H](NC(=O)[C@H](CCCCN)NC(=O)[C@@H](NC(=O)[C@H](Cc1c[nH]c2ccccc12)NC(=O)[C@H](CCCCN)NC(=O)[C@@H](N)CCCCN)[C@@H](C)O)C(=O)N[C@@H](Cc1ccc(O)cc1)C(=O)N[C@@H](CO)C(=O)N1CCC[C@H]1C(=O)N[C@@H](CC(C)C)C(=O)N[C@@H](CO)C(=O)N[C@@H](CC(C)C)C(=O)O` [Smilodin-1] (H-KKWTKIYSPLSL-OH; N-terminus and C-terminus assumed), for which, in the data set with HEK293T cells (24 h), the CC50 was more than 128 µM and the “TI (therapeutic index)” value is more than 2. The “Active or Inactive” value in data set [2] is on record as “Active”. The “Minimal inhibitory concentration, K. pneumoniae ATCC133883” value in the data set on K. pneumoniae ATCC 13883 came out at 64 µM (≈ 93.7 µg/mL).
For the compound `CC[C@H](C)[C@H](NC(=O)[C@@H](N)[C@@H](C)O)C(=O)N[C@@H](CCCCN)C(=O)N[C@@H](CC(C)C)C(=O)N[C@@H](Cc1ccccc1)C(=O)N[C@@H](CC(C)C)C(=O)N[C@@H](CO)C(=O)N[C@@H](Cc1ccccc1)C(=O)N[C@@H](CCCCN)C(=O)N[C@@H](CC(C)C)C(=O)O` [Xenothrixin-1] (H-TIKLFLSFKL-OH; N-terminus and C-terminus assumed), in the data set with A. baumannii ATCC 19606, the “Minimal inhibitory concentration, A. baumannii ATCC19606” value worked out at 8 µM (≈ 9.68 µg/mL). In the data set on HEK293T cells, the 50% cytotoxic concentration (CC50) was 70.77 µM and the “TI (therapeutic index)” value is 8.84. Moreover, in the data set on HEK293T cells (24 h), the half-maximal cytotoxic concentration (CC50) stood at 70.77 µM. In data set [2], the “Active or Inactive” value is reported as “Active”.
